Experimental data taken from patent US20230002393A1, “CDK KINASE INHIBITOR” (BEIJING BENICALL BIOTECH CO., LTD., priority 2019, published 2023).

Experiments:
[1] = system: MCF-7 cells; experiment: Cell viability assay, MCF-7 cells (CellTiter-Glo, 168 h); type: cell-based; conditions: Homo sapiens, MCF7
Procedure: An in vitro cell viability assay was conducted using some Example compounds following the steps below:
1. After recovery, MCF-7 cells (obtained from the Shanghai Cell Bank of the Chinese Academy of Sciences) were cultured at 37° C., 5% CO2, and 95% humidity.
2. 8 compound solutions at different concentrations were prepared for each Example compound. 50 μL of the compound solution at each concentration was added to a 96-well black plate.
3. The cell concentration was adjusted to about 30,000 cells/mL. 100 μL of the cell suspension was added to the 96-well plate, and mixed well to a final cell density of about 3,000 cells/well.
4. The 96-well plate was incubated at 37° C., 5% CO2, and 95% humidity for 168 h, i.e., 7 days.
5. The cell survival rate was measured by the method of CellTiter-Glo® Luminescent Cell Viability Assay (Promega, Cat #G7572). The fluorescence data were read on a microplate reader (EnVision™, a multi-function microplate detector, PerkinElmer).
6. The obtained fluorescence data were analyzed using the GraphPad Prism software. The cell survival rate was calculated for each Example compound at each concentration, and the IC50 interval of each Example compound was determined.

[2] = target: T1, CDK6/CyclinD1 (Homo sapiens, UniProt Q00534); experiment: In vitro cell-free CDK6/CyclinD1 kinase activity assay (TR-FRET); type: biochemical; conditions: ATP at Km
T1 construct: purchased Carna 04-114
Procedure: It should be noted that the assay can also be conducted by a similar method. The assay steps in this Test Example are as follows:
The CDK6/CyclinD1 kinase activity was determined using a time-resolved fluorescence resonance energy transfer (TR-FRET) method. Measurements were performed in a reaction volume of 20 μL using 384-well assay plates. […] The reaction was stopped by adding a mixture of a peptide antibody (trade name: Cisbio, product No. 64CUSKAY) and Sa-XL665 (trade name: Cisbio, product No. 610SAXLB) diluted in HTRF KinEASE detection buffer (trade name: Cisbio, product No. 62SDBRDF, containing EDTA). After the mixture was incubated for 1 hour at room temperature, the plate was read. The TR-FRET signal was measured on a multimode plate reader (EnVision™, a multi-function microplate detector, PerkinElmer) at an excitation wavelength (λEx) of 330 nm and detection wavelengths (λEm) of 615 and 665 nm. The activity was determined by the ratio of fluorescence at 665 nm to that at 615 nm. For each compound, the enzyme activities of different concentrations of the compound were measured to determine IC50. The negative control contained no inhibitor. Two no-enzyme controls were used to determine baseline fluorescence levels. IC50 was obtained by fitting using the GraphPad 6.02 software.
8-10 concentrations were prepared for each compound, and formulated in DMSO. The stock concentration was 200× the working concentration. For example, if the working concentration was 100 nM, the corresponding concentration of the formulated stock solution was 20 μM.
In the analysis of in vitro inhibitory activity on CDK kinase, the IC50 value of each of the Example compounds and Reference Example compounds was determined.

T1 sequence (Q00534 whole entry): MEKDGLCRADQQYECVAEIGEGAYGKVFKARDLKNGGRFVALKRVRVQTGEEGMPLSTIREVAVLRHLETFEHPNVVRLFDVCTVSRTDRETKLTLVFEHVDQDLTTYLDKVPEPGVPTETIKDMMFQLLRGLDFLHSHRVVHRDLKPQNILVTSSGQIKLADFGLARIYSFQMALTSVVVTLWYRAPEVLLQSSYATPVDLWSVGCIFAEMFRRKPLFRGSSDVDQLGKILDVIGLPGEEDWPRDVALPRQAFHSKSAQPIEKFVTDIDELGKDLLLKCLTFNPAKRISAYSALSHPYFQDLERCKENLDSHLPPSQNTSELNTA
T1 sequence (P24385 whole entry partner): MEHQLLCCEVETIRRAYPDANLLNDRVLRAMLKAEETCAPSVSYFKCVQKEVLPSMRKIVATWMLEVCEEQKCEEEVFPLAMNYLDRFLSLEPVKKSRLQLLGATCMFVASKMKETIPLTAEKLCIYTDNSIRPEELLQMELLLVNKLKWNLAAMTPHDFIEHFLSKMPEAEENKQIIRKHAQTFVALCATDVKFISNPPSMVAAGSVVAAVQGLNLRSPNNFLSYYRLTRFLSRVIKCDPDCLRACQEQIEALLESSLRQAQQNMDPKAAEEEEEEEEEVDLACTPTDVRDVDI

| SMILES | IC50 [1] [nM] | IC50 [2] [nM] |
| --- | --- | --- |
| CN(C)C(=O)c1cc2cnc(Nc3ccc(N4CCC5(CC4)CNC5)cn3)nn2c1-c1ccc(Cl)cc1 [Example 44] | < 500 | < 100 |
| CN(C)C(=O)c1cc2cnc(Nc3ccc(N4CCNC5(CC5)C4)cn3)nn2c1-c1ccc(Cl)cc1 [Example 45] | 500 to 2500 | < 100 |
| CN(C)C(=O)c1cc2cnc(Nc3ccc(N4CC5(CCNC5)C4)cn3)nn2c1-c1ccc(Cl)cc1 [Example 46] | < 500 | < 100 |
| COCCOc1ccc(-c2c(C(=O)N(C)C)cc3cnc(Nc4ccc(N5CCNC6(CC6)C5)cn4)nn23)cc1 [Example 47] | 2500 to 10000 | < 100 |
| COCCOc1ccc(-c2c(C(=O)N(C)C)cc3cnc(Nc4ccc(N5CC6(CCNC6)C5)cn4)nn23)cc1 [Example 49] | 500 to 2500 | < 100 |
| COCCOc1ccc(-c2c(C(=O)N(C)C)cc3cnc(Nc4ccc(N5CCC6(CCNCC6)C5)cn4)nn23)cc1 [Example 50] | 2500 to 10000 | < 100 |
| O=C1CCCN1c1cc2cnc(Nc3ccc(N4CCNCC4)cn3)nn2c1-c1ccc(Cl)cc1 [Example 51] | 500 to 2500 | 100 to 1000 |
| O=C1CCCN1c1cc2cnc(Nc3ccc(N4CCNCC4)cn3)nn2c1C1=CCCC1 [Example 52] | 2500 to 10000 | 100 to 1000 |
| COc1cc(F)ccc1-c1c(-c2cnn(C)c2)cc2cnc(Nc3ccc(N4CCNCC4)cn3)nn12 [Example 53] | 500 to 2500 | 100 to 1000 |
| Cn1cc(-c2cc3cnc(Nc4ccc(N5CCNCC5)cn4)nn3c2-c2ccncc2)cn1 [Example 54] | 500 to 2500 | < 100 |
| Cn1cc(-c2cc3cnc(Nc4ccc(N5CCNCC5)cn4)nn3c2N2CCCC2)cn1 [Example 55] | < 500 | < 100 |
| COCCOc1ccc(-c2c(C(=O)N(C)C)cc3cnc(Nc4ccc(N5CCNCC5)cn4)nn23)cc1 [Example 57] | 500 to 2500 | < 100 |
| CN(C)C(=O)c1cc2cnc(Nc3ccc(N4CCNCC4)cn3)nn2c1-c1ccncc1 [Example 58] | 2500 to 10000 | < 100 |
| COc1cc(F)ccc1-c1c(C(=O)N(C)C)cc2cnc(Nc3ccc(N4CCNCC4)cn3)nn12 [Example 59] | 500 to 2500 | < 100 |
| CN(C)C(=O)c1cc2cnc(Nc3ccc(N4CCNCC4)cn3)nn2c1-c1ccc(O)cc1 [Example 60] | 2500 to 10000 | < 100 |
| COc1cc(F)ccc1-c1c(C(=O)N(C)C)cc2cnc(Nc3ccc(N4CC5(CNC5)C4)cn3)nn12 [Example 65] | 2500 to 10000 | < 100 |
| Cc1noc(C)c1-c1c(-c2cnn(C)c2)cc2cnc(Nc3ccc(N4CCNCC4)cn3)nn12 [Example 68] | 2500 to 10000 | 100 to 1000 |
| CN(C)C(=O)c1cc2cnc(Nc3ccc(N4CC5(CCNC5)C4)cn3)nn2c1-c1ccncc1 [Example 69] | 2500 to 10000 | < 100 |
| Cn1cc(-c2cc3cnc(Nc4ccc(N5CCNCC5)cn4)nn3c2C2CCCC2)cn1 [Example 71] | 500 to 2500 | < 100 |
| FC(F)n1cc(-c2cc3cnc(Nc4ccc(N5CCNCC5)cn4)nn3c2C2=CCCC2)cn1 [Example 72] | 500 to 2500 | 100 to 1000 |
| Cn1cc(-c2cc3cnc(Nc4ccc(N5CCNCC5)cn4)nn3c2C2=CCCC2)ccc1=O [Example 73] | 500 to 2500 | < 100 |
| C1=C(c2c(-c3cn[nH]c3)cc3cnc(Nc4ccc(N5CCNCC5)cn4)nn23)CCC1 [Example 74] | < 500 | < 100 |
| C1=C(c2c(-c3cccs3)cc3cnc(Nc4ccc(N5CCNCC5)cn4)nn23)CCC1 [Example 75] | 500 to 2500 | < 100 |
| C1=C(c2c(-c3cnoc3)cc3cnc(Nc4ccc(N5CCNCC5)cn4)nn23)CCC1 [Example 76] | 2500 to 10000 | < 100 |
| Cc1ncc(-c2cc3cnc(Nc4ccc(N5CCNCC5)cn4)nn3c2C2=CCCC2)cn1 [Example 78] | 2500 to 10000 | < 100 |
| Cn1cc(-c2cc3cnc(Nc4ccc(N5CCNCC5)cn4)nn3c2)cn1 [Example 81] | 2500 to 10000 | 100 to 1000 |

| SMILES | IC50 [1] [nM] | IC50 [2] [nM] |
| --- | --- | --- |
| Cn1cc(-c2cc3cnc(Nc4ccc(N5CCNCC5)cn4)nn3c2Br)cn1 [Example 82] | < 500 | 100 to 1000 |
| Cc1ccc(-c2cc3cnc(Nc4ccc(N5CCNCC5)cn4)nn3c2C2=CCCC2)s1 [Example 83] | 500 to 2500 | 100 to 1000 |
| C1=C(c2c(-c3cncnc3)cc3cnc(Nc4ccc(N5CCNCC5)cn4)nn23)CCC1 [Example 84] | < 500 | < 100 |
| Cc1n[nH]cc1-c1cc2cnc(Nc3ccc(N4CCNCC4)cn3)nn2c1C1=CCCC1 [Example 85] | < 500 | < 100 |
| CCn1cc(-c2cc3cnc(Nc4ccc(N5CCNCC5)cn4)nn3c2C2=CCCC2)cn1 [Example 86] | < 500 | < 100 |
| CC(C)n1cc(-c2cc3cnc(Nc4ccc(N5CCNCC5)cn4)nn3c2C2=CCCC2)cn1 [Example 87] | < 500 | 100 to 1000 |
| C1=C(c2c(-c3cccnc3)cc3cnc(Nc4ccc(N5CCNCC5)cn4)nn23)CCC1 [Example 88] | < 500 | < 100 |
| Cc1ccc(-c2cc3cnc(Nc4ccc(N5CCNCC5)cn4)nn3c2C2=CCCC2)cn1 [Example 89] | < 500 | < 100 |
| Cc1cc(-c2cc3cnc(Nc4ccc(N5CCNCC5)cn4)nn3c2C2=CCCC2)ccn1 [Example 90] | < 500 | < 100 |
| COc1cc(F)ccc1-c1c(-c2c[nH]nc2C)cc2cnc(Nc3ccc(N4CCNCC4)cn3)nn12 [Example 91] | 2500 to 10000 | 100 to 1000 |
| Cn1cc(-c2cc3cnc(Nc4ccc(N5CC6(CCNC6)C5)cn4)nn3c2C2=CCCC2)cn1 [Example 92] | 500 to 2500 | 100 to 1000 |
| Cn1cc(-c2cc3cnc(Nc4ccc(N5CCC6(CCNCC6)CC5)cn4)nn3c2C2=CCCC2)cn1 [Example 93] | < 500 | < 100 |
| COc1cc(F)ccc1-c1c(-c2cn[nH]c2)cc2cnc(Nc3ccc(N4CCNCC4)cn3)nn12 [Example 94] | < 500 | < 100 |
| C1=C(c2c(-c3cncnc3)cc3cnc(Nc4ccc(N5CCC6(CCNCC6)CC5)cn4)nn23)CCC1 [Example 96] | 500 to 2500 | < 100 |
| C1=C(c2c(-c3ccncc3)cc3cnc(Nc4ccc(N5CCNCC5)cn4)nn23)CCC1 [Example 97] | < 500 | < 100 |
| CN1CCN(c2ccc(Nc3ncc4cc(-c5cncnc5)c(C5=CCCC5)n4n3)nc2)CC1 [Example 98] | 500 to 2500 | < 100 |
| CN1CCN(c2ccc(Nc3ncc4cc(C(=O)N(C)C)c(C5=CCCC5)n4n3)nc2)CC1 [Example 99] | < 500 | < 100 |
| COc1ccc(-c2c(C(=O)N(C)C)cc3cnc(Nc4ccc(N5CCN(C)CC5)cn4)nn23)cc1 [Example 100] | < 500 | < 100 |
| [2H]C([2H])([2H])N1CCN(c2ccc(Nc3ncc4cc(C(=O)N(C)C)c(-c5ccc(OC)cc5)n4n3)nc2)CC1 [Example 101] | < 500 | < 100 |
| [2H]C([2H])([2H])N1CCN(c2ccc(Nc3ncc4cc(C(=O)N(C)C)c(C5=CCCC5)n4n3)nc2)CC1 [Example 102] | < 500 | < 100 |
| CCN1CCN(c2ccc(Nc3ncc4cc(C(=O)N(C)C)c(C5=CCCC5)n4n3)nc2)CC1 [Example 103] | < 500 | < 100 |
| [2H]C([2H])([2H])C([2H])([2H])N1CCN(c2ccc(Nc3ncc4cc(C(=O)N(C)C)c(C5=CCCC5)n4n3)nc2)CC1 [Example 104] | < 500 | < 100 |
| CN1CCN(c2ccc(Nc3ncc4cc(C(=O)N(C)C)c(C5=CCOCC5)n4n3)nc2)CC1 [Example 105] | < 500 | < 100 |
| [2H]C([2H])([2H])N1CCN(c2ccc(Nc3ncc4cc(C(=O)N(C)C)c(C5=CCOCC5)n4n3)nc2)CC1 [Example 106] | < 500 | < 100 |
| CN(C)C(=O)c1cc2cnc(Nc3ccc(N4CCNCC4)cn3)nn2c1C1=CCOCC1 [Example 107] | < 500 | < 100 |
| CN(C)C(=O)c1cc2cnc(Nc3ccc(N4CCNCC4)cn3)nn2c1-c1ccccc1 [Example 108] | < 500 | < 100 |
